In patent US9144573B2, “Prostaglandin transporter inhibitors” (Albert Einstein College of Medicine of Yeshiva University, priority 2006, dated 2015):
“Also recorded” adds a separate entry of the source.

Experiments:
MDCK cells = assay type: cell-based, Canine
Method: We used TGBz T34 to further isolate the efflux process of PGE2. […] The intracellular concentrations of PGE2 at different time points were calculated by dividing the total amount of intracellular PGE2 on the dish by the total volume of cells, based on cell number counts and published individual cell volume (Schneider et al., 2000; Hill et al., 2004). Since the addition of inhibitor involved removing extracellular tracer PGE2, the intracellular PGE2 concentration at the point of inhibitor addition approximates the outwardly-directed PGE2 gradient.
This linearity held true even when the intracellular PGE2 concentration was extended to almost 800 nM, i.e. 10 fold the Km of PGT for PGE2 (data not shown). From the slope of the relationship, we generated a range of permeability coefficients for PGE2 efflux of 1.2 to 5.3×10^−6 cm/sec, based on the range of MDCK cell volumes reported in the literature (Schneider et al., 2000; Hill et al., 2004). […] The ratio of the influx-to-efflux permeability coefficients was thus in the range 2.7 to 117.

[1] = target: T1, prostaglandin transporter (PGT) (Rattus norvegicus, UniProt Q00910); assay: PGE2 uptake by MDCK cells stably expressing PGT; assay type: cell-based; conditions: for inhibition at 5 µM: MDCK, read-out: % Inhib. at 5 μM
T1 construct: GFP; expressed in transfected cells
Method: MDCK or 3T3 cells were seeded at 15-20% confluence on 24-well plates. The day on which the cells were seeded was considered day 1. PGE2 uptake experiments were conducted on day 4. All of the PGE2 uptake experiments were conducted at room temperature. On day 4, cells were washed twice with Waymouth buffer (135 mM NaCl, 13 mM H-Hepes, 13 mM Na-Hepes, 2.5 mM CaCl2, 1.2 mM MgCl2, 0.8 mM MgSO4, 5 mM KCl, and 28 mM D-glucose). Then 200 μL of Waymouth buffer containing [^3H]PGE2 was added to each well. At the designated time, the uptake of [^3H]PGE2 was stopped by aspiration of uptake buffer; this was followed by immediate washing twice with 500 μL of chilled Waymouth buffer. Cells were then lysed with 100 μL lysis buffer containing 0.25% SDS and 0.05 N NaOH. 1.5 mL of scintillation solution was added to each well, and intracellular [^3H]PGE2 was counted by MicroBeta Counter.
For preliminary screening of the compounds, 25 μL of Waymouth buffer containing small organic compounds were added to each well; this was immediately followed by the addition of 175 μL of Waymouth buffer containing [^3H]PGE2. In each well, the total volume of uptake medium was 200 μL. Organic compounds were first dissolved in DMSO and then diluted in Waymouth buffer. The percent inhibition of [^3H]PGE2 uptake by compounds was calculated as [(uptakevehicle−uptakeinhibitor)÷(uptakevehicle)]×100.
The initial velocities at various initial extracellular concentrations of PGE2 were determined from the PGE2 uptake in the first 2 minutes; these were linear over the time course of PGE2 uptake. Ki values were obtained by curve fitting the reciprocal of initial velocities of PGE2 uptake versus the reciprocal of extracellular PGE2 concentrations at various concentrations of the inhibitors. At low PGE2 concentrations, the extracellular concentrations were taken as ^3H labeled PGE2, which has a specific activity of 500 μCi/mol. At high concentrations of PGE2, a mixture of ^3H labeled and unlabeled PGE2 was made to a final specific activity of 25 μCi/mol.

[2] = Table 1, PGE2 uptake, MDCK cells expressing PGT

inhibition at 5 µM [1] [%]	Ki ([1]; Table 2) [µM]	SMILES	other results
84	3.6	[N-]=[N+]=NCCOCCOCCNC(=O)c1ccc(Nc2nc(NCCOCCOCCNC(=O)c3ccccc3)nc(Nc3ccccc3)n2)cc1 [T28A]	–
56	–	[N-]=[N+]=NCCOCCOCCNC(=O)c1ccc(Nc2nc(NCCOCCOCCNC(=O)c3ccccc3)nc(NCc3ccccc3)n2)cc1 [T14A]	–
72	–	[N-]=[N+]=NCCOCCOCCNC(=O)c1ccc(Nc2nc(NCCCc3ccccc3)nc(NCCOCCOCCNC(=O)c3ccccc3)n2)cc1 [T21A]	–
84	3.7	[N-]=[N+]=NCCOCCOCCNC(=O)c1ccc(Nc2nc(NCCOCCOCCNC(=O)c3ccccc3)nc(NCCc3ccccc3)n2)cc1 [T34]	Ki ([1]; 0 min pre-incubation, separate experiments): 1.22 µM; intracellular PGE2 after addition of inhibitor at peak level ([1]; 25 μM added at 9 minutes): rapid depletion of intracellular PGE2; time for intracellular PGE2 to fall to baseline ([1]; 25 μM added at peak (9 minutes)): ≤ 5 min; inhibition of PGE2 transport by PGT ([1]; 25 μM, added at the beginning of uptake, listed as TGBz T34): overshoot phenomenon completely disappeared; also recorded: full inhibition; Ki ([1]; 10 min pre-incubation): 1.63 µM; Ki ([1]; 20 min pre-incubation): 1.41 µM; Ki [1, 2]: 3.7 ± 0.2 µM; mode of inhibition ([1]; double reciprocal analysis): competitive inhibitor; Ki ([1]; double-reciprocal plots, PGE2 varied at 0, 3, 6 μM inhibitor): 3.7 ± 0.2 µM
82	3.9	[N-]=[N+]=NCCOCCOCCNC(=O)c1ccc(Nc2nc(NCCOCCOCCNC(=O)c3ccccc3)nc(Nc3ccc(F)cc3)n2)cc1 [T25A]	–

The remaining lines, values behind:

SMILES	inhibition at 5 µM [1] [%]	Ki ([1]; Table 2) [µM]	other results
CCCCC[C@H](O)/C=C/[C@H]1[C@H](O)CC(=O)[C@@H]1C/C=C\CCCC(=O)O [PGE2, prostaglandin E2]	–	–	permeability coefficient for PGE2 efflux (MDCK cells): 1.2-5.3 ×10^−6 cm/sec; permeability coefficient for PGE2 influx (by simple diffusion) (MDCK cells): 4.5 nm/s; ratio of the influx-to-efflux permeability coefficients (MDCK cells): 2.7-117
[N-]=[N+]=NCCOCCOCCNC(=O)c1ccc(Nc2nc(NCCOCCOCCNC(=O)c3ccccc3)nc(NCCc3ccc(F)cc3)n2)cc1 [T18A]	76	–	–
[N-]=[N+]=NCCOCCOCCNC(=O)c1ccc(Nc2nc(NCCCCc3ccccc3)nc(NCCOCCOCCNC(=O)c3ccccc3)n2)cc1 [T22A]	72	–	–
CC(C)CCNc1nc(NCCOCCOCCNC(=O)c2ccccc2)nc(Nc2ccc(C(=O)NCCOCCOCCN=[N+]=[N-])cc2)n1 [T08A]	64	–	–
CCCNc1nc(NCCOCCOCCNC(=O)c2ccccc2)nc(Nc2ccc(C(=O)NCCOCCOCCN=[N+]=[N-])cc2)n1 [T03A]	54	–	–
[N-]=[N+]=NCCOCCOCCNC(=O)c1ccc(Nc2nc(NCCOCCOCCNC(=O)c3ccccc3)nc(NCCc3ccc(O)cc3)n2)cc1 [T41]	65	6.2	Ki [1, 2]: 6.2 ± 0.7 µM
CCCCCCCNc1nc(NCCOCCOCCNC(=O)c2ccccc2)nc(Nc2ccc(C(=O)NCCOCCOCCN=[N+]=[N-])cc2)n1 [T07A]	74	–	–
